Bridge positions count the residues as written; N and C are the ends. Peptide text beside a SMILES is read from it.

As usually defined, the IC50 is the midpoint of a concentration-inhibition curve.

A short description of experiment [1]: Inhibition of voltage-gated calcium channel Cav-mediated late-sustained current in Periplaneta americana (American cockroach) DUM neurons assessed as measured at holding potential -80 mV depolarized to +40 mV after 10 min by whole cell patch clamp assay in presence of CdCl2.
The nature of experiment [2]: Inhibition of voltage-gated calcium channel Cav-mediated fast-transient current in Periplaneta americana (American cockroach) DUM neurons assessed as measured at holding potential -80 mV depolarized to +40 mV after 10 min by whole cell patch clamp assay in presence of CdCl2. On the technique in general: In patch-clamp work, channel activity is measured electrically.

For the molecule `CSCC[C@@H]1NC(=O)[C@H](CCCCN)NC(=O)[C@H](Cc2ccccc2)NC(=O)[C@H](CCC(N)=O)NC(=O)[C@@H](NC(=O)[C@@H](N)Cc2ccc(O)cc2)CSSC[C@@H]2NC(=O)[C@@H]3CSSC[C@@H](C(=O)N[C@@H](CCCCN)C(=O)N[C@@H](CC(C)C)C(=O)N[C@@H](CC(N)=O)C(=O)N[C@@H](CC(C)C)C(=O)O)NC(=O)[C@H](Cc4c[nH]c5ccccc45)NC(=O)[C@H](CC(C)C)NC(=O)[C@H](CCCNC(=N)N)NC(=O)[C@H](CSSC[C@H](NC(=O)[C@H]([C@@H](C)O)NC(=O)[C@H](Cc4c[nH]c5ccccc45)NC1=O)C(=O)N[C@@H](CC(=O)O)C(=O)N[C@@H](CO)C(=O)N[C@@H](CCC(=O)O)C(=O)N[C@@H](CCCNC(=N)N)C(=O)N[C@@H](CCCCN)C(=O)N3)NC(=O)[C@H](C(C)C)NC(=O)[C@H](CCSC)NC(=O)[C@H](CC(=O)O)NC(=O)[C@H](CCC(=O)O)NC2=O`, the 50% inhibitory concentration (IC50) in experiment [1] was 19 nM; in experiment [2], 25 nM.
In the same order, the values of `CSCC[C@@H]1NC(=O)[C@H](CC(=O)O)NC(=O)[C@H](CCC(=O)O)NC(=O)[C@@H]2CSSC[C@H](NC(=O)[C@@H](N)Cc3ccc(O)cc3)C(=O)N[C@@H](CCC(N)=O)C(=O)N[C@@H](CCCCN)C(=O)N[C@@H](Cc3ccccc3)C(=O)N[C@@H](CC(C)C)C(=O)N[C@@H](Cc3c[nH]c4ccccc34)C(=O)N[C@@H]([C@@H](C)O)C(=O)N[C@H]3CSSC[C@H](NC(=O)[C@H](C(C)C)NC1=O)C(=O)N[C@@H](CCC(=O)O)C(=O)N[C@@H](CC(C)C)C(=O)N[C@@H](Cc1c[nH]c4ccccc14)C(=O)N[C@H](C(=O)N[C@@H](CCCCN)C(=O)N[C@@H](CC(C)C)C(=O)N[C@@H](CCC(=O)O)C(=O)N[C@@H](CCCCN)C(=O)O)CSSC[C@H](NC(=O)[C@H](CCCCN)NC(=O)[C@H](CCCNC(=N)N)NC(=O)[C@H](CCC(=O)O)NC(=O)[C@H]([C@@H](C)O)NC(=O)[C@H](CC(=O)O)NC3=O)C(=O)N2` (H-YCQKFLWTCDTERKCCEDMVCELWCKLEK-OH; disulfide 2-16, 9-21, 15-25) are 3.7 nM and 3.7 nM.
On to `CSCC[C@@H]1NC(=O)[C@H](CC(=O)O)NC(=O)[C@H](CCC(=O)O)NC(=O)[C@@H]2CSSC[C@H](NC(=O)[C@@H](N)Cc3ccc(O)cc3)C(=O)N[C@@H](CCC(N)=O)C(=O)N[C@@H](CCCCN)C(=O)N[C@@H](Cc3ccccc3)C(=O)N[C@@H](CC(C)C)C(=O)N[C@@H](Cc3c[nH]c4ccccc34)C(=O)N[C@@H]([C@@H](C)O)C(=O)N[C@H]3CSSC[C@H](NC(=O)[C@H](C(C)C)NC1=O)C(=O)N[C@@H](CCC(=O)O)C(=O)N[C@@H](CC(C)C)C(=O)N[C@@H](Cc1c[nH]c4ccccc14)C(=O)N[C@H](C(=O)N[C@@H](CCCCN)C(=O)N[C@@H](Cc1ccc(O)cc1)C(=O)N[C@@H](CCCCN)C(=O)N[C@@H](CCC(=O)O)C(=O)O)CSSC[C@H](NC(=O)[C@H](CCCCN)NC(=O)[C@H](CCCNC(=N)N)NC(=O)[C@H](CCC(=O)O)NC(=O)[C@H]([C@@H](C)O)NC(=O)[C@H](CC(=O)O)NC3=O)C(=O)N2` (H-YCQKFLWTCDTERKCCEDMVCELWCKYKE-OH; disulfide 2-16, 9-21, 15-25), for which the IC50 in experiment [1] is 26 nM; in experiment [2], 25 nM.

(Values after BindingDB's records for doi:10.1124/mol.110.070540 (University of Technology Sydney, 2011).)
